Data from patent publication US20220023269A1, “Methods Of Treating Diabetes In Severe Insulin-Resistant Diabetic Subjects” (Balticgruppen Bio AB, priority 2018, published 2022).

Legend:
[1] = test system: AMPK in rat insulinoma INS-1 cells; test: AMPK activation in INS-1 insulinoma cells; type: cell-based; conditions: 2.5, 5, 10 μM, 2 hours
Protocol: All cell lines were lysed in 0.1 M Tris-HCl, pH 6.8, 2% SDS, 10 mM sodium fluoride (SIGMA #S7920), 10 mM β-glycerophosphate (SIGMA #G6376), and 1 mM sodium vanadate (SIGMA #72060) and supernatant collected after 1 minute at 14,000 rpm. Islets (human and mouse) were lysed in 0.1 M Tris-HCl, pH 6.8, 2% SDS, protease inhibitor (Roche #04 693 124 001) and phosphatase inhibitor (Roche #04 906 837 001). Right calf muscle, heart, iWAT, and interscapular BAT was crushed in a pestle using liquid nitrogen and homogenised in ice cold RIPA buffer (150 mM sodium chloride (SIGMA #S7653), 1.0% NP40 (USB), 0.5% sodium deoxycholate (SIGMA #D6750), 0.1% SDS, 50 mM Tris pH 8.0, 20 mM sodium pyrophosphate (SIGMA #71515), 10 mM sodium fluoride, 10 mM β-glycerolphosphate, 1 mM sodium vanadate and protease inhibitor cocktail (Roche #04693124001), 1 tablet/10 ml lysis buffer). The supernatant was collected after 2 min at 14,000 rpm. This procedure was repeated until all fat was eliminated and the supernatant was clear, at 4° C. Samples were analysed on 4-15% polyacrylamide gels. Values were normalised toward AMPKα, β-Actin, GAPDH or the respective non-phosphorylated counterpart.
Table 3 contains origin of cell lines, growth conditions and settings for activation of AMPK via the test material. […]

Zucker rats = test: Infrared thermal imaging; type: in vivo; conditions: 10 mg/kg/day, 12 days
Protocol: Skin temperature of non-sedated Zucker rats that had been treated with test material (10 mg/kg/day) or vehicle for 12 days was recorded with an infrared camera (FLIR ix series Extech IRC30, FLIR systems Inc.) and analysed with a specific software package (FLIR QuickReport version 1.2 SP2 (1.0.1.217). 9 rats per group was used and mean and maximum skin surface temperatures were measured for each animal 2 hours after final dose administration.

CBA mice on HFD [2] = test: Crossover HFD / test material-HFD (2 mg/g) at housing and thermoneutral conditions; type: in vivo
Protocol: 14 weeks old CBA mice were randomised into HFD and test material-HFD (2 mg/g) groups for 2 weeks while housed at 22° C. The two groups were then switched from HFD to test material-HFD and vice versa for an additional 4.5 weeks before transferred from 22° C. to 30° C. (thermoneutrality). After one week at 30° C. the diet was switched again and one week after the switch core body temperature were determined.
Food intake was measured weekly by giving each cage 200 g pellet. After one week, the amount of pellets consumed were calculated and adjusted according to the number of animals/cage. Body weight was measured weekly. Body composition was assessed using EchoMRI.

conscious beagle dogs = test: Cardiovascular safety pharmacology study using radiotelemetry in conscious beagle dogs; type: in vivo; conditions: single oral doses 60, 180, 540 mg/kg
Protocol: Telemetry analyses was performed by CiToxLAB North America (Laval, Quebec, Canada) in adult male beagle dogs, selected from CiToxLAB North America Dog Telemetry Colony, which had previously undergone surgery for telemetry transmitter implantation to monitor the arterial blood pressure, electrocardiogram, body temperature and locomotor activity (Data Science International, Model D70-PCT). All surgical procedures were performed in accordance with relevant Standard Operating Procedures. A telemetry transmitter was placed between the internal abdominal oblique muscle and the aponeurosis of the transverses abdominis of each animal. The pressure catheter was inserted into the femoral artery and the biopotential leads subcutaneously in a Lead II configuration. Test material was gavaged as a suspension at 60, 180, or 540 mg/kg.

CBA mice on HFD [3] = test: Arginine-stimulated insulin secretion; type: in vivo; conditions: 0.8 mg/g in HFD, 11 w; arginine 1 g/kg i.p.
Protocol: Arginine-stimulated insulin secretion was determined following i.p. injection of arginine (SIGMA #A5131) (1 g/kg body weight) in non-fasted 21 weeks old CBA mice that had been on HFD or test material-HFD (0.8 mg/g) for 11 w. Blood glucose was measured using Glucometer (Ultra 2, One Touch) and plasma insulin analysed via the ultrasensitive mouse insulin ELISA kit (Chrystal Chem Inc. #90080). Area under the Curve (AUC) was calculated according to the trapezoid rule.

increase in core temperature vs HFD (nonsignificant) (CBA mice on HFD [2]; 30° C. housing): 0.2 °C
core temperature (CBA mice on HFD [2]; 30° C. housing, one week after switch, n=5): 37.9 °C
SMILES: O=C(Nc1nc(=O)n(Cc2ccc(Cl)cc2)s1)c1ccc(Cl)cc1 [test material, 4-chloro-N-[2-[(4-chlorophenyl)methyl]-3-oxo-1,2,4-thiadiazol-5-yl]benzamide]
pAMPKα [1]: directly increased pAMPKα
skin-surface temperature (Zucker rats): increased
body weight gain (CBA mice on HFD [2]; 2 mg/g in HFD, day 1-14, housing temperature): gained almost no weight
body weight at thermoneutrality, continued on test material-HFD (CBA mice on HFD [2]; 30° C. from day 49): still averted weight gain
body weight after switch from HFD to test material-HFD at thermoneutrality (CBA mice on HFD [2]; 30° C., switch at day 57): rapidly started to lose weight
body weight after switch from HFD to test material-HFD (CBA mice on HFD [2]; switch at day 15, housing temperature): rapidly started to lose weight
blood pressure (systolic and diastolic) (conscious beagle dogs): acutely reduced blood pressure
arginine stimulation of insulin secretion, increase vs HFD (CBA mice on HFD [3]): 2 fold
